Data from patent US8785488B2 (Exelixis Patent Company LLC, priority 2009, dated 2014).

Assays:
human TGR5 (h-TGR5) = biological target: T1, human TGR5 (h-TGR5) (Homo sapiens, UniProt Q8TDU6); assay: TGR5/CRE-Luciferiase Assay (HEK 293 hTGR5/CRE-Luc cells); type: cell-based; settings: h-TGR5 CRE-Luc EC50, Table 1; read-out: CRE-Luc (EC50)
T1 construct: expressed in transfected cells
T1 sequence (Q8TDU6 1-330): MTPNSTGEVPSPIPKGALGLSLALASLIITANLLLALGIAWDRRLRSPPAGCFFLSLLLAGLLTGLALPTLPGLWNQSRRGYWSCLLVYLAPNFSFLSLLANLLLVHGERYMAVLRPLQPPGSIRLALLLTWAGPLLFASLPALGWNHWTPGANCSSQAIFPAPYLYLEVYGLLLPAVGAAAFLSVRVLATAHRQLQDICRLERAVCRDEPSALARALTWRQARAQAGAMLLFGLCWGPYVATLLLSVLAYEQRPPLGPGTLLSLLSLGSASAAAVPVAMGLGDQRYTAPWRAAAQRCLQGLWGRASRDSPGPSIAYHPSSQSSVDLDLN
How it was run: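 HEK293 cells stably carrying hTGR5 and a CRE-luciferase reporter were exposed to serially diluted compounds (diluted in DMEM with 5% DMSO) for 6 h. Cells were then lysed in luciferase buffer, luminescence was read, and EC50 values were derived from dose-response curves.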

h-TGR5 = biological target: T2, h-TGR5 (Homo sapiens, UniProt Q8TDU6); assay: TGR5 cAMP Assay using Cisbio cAMP Dynamic2 htrf kit (hTGR5CRE-luc HEK 293 cells); type: cell-based; settings: h-TGR5 cAMP EC50, Table 1; read-out: cAMP (EC50)
T2 construct: expressed in transfected cells
T2 sequence (Q8TDU6 1-330): T1 sequence (Q8TDU6 1-330)
How it was run: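 […], 4000 hTGR5CRE-luc HEK 293 cells per well, with 0.5 mM IBMX and d2-cAMP, were incubated 30 min at room temperature with compounds in 8-point half-log series, in quadruplicate.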

Structure (SMILES) | EC50 (human TGR5 (h-TGR5)) [nM] | EC50 (h-TGR5) [nM]
CC(C)(c1ccc2onc(N)c2c1)c1cnc(SCc2c(F)cc(C(=O)NC(CCCNC(=N)N)C(=O)O)cc2Cl)n1-c1ccc(F)cc1 [N-2-({4-[({5-[1-(3-amino-1,2-benzisoxazol-5-yl)-1-methylethyl]-1-(4-fluorophenyl)-1H-imidazol-2-yl}thio)methyl]-3-chloro-5-fluorophenyl}carbonyl)-D-arginine] | < 100 | < 100
COc1cc(-n2c(C(C)(C)c3ccc(S(N)(=O)=O)c(Cl)c3)cnc2SCc2c(F)cc(C(=O)NC(CCCNC(=N)N)C(=O)O)cc2Cl)ccc1F [N-2-[(4-{[(5-{1-[4-(aminosulfonyl)-3-chlorophenyl]-1-methylethyl}-1-[4-fluoro-3-(methyloxy)phenyl]-1H-imidazol-2-yl)thio]methyl}-3-chloro-5-fluorophenyl)carbonyl]-D-arginine] | < 100 | < 100
COc1cc(C(C)(C)c2cnc(SCc3c(F)cc(C(=O)NCCCC(NC(=N)N)C(=O)O)cc3Cl)n2-c2ccc(F)cc2)ccc1Cl [N-2-[amino(imino)methyl]-N-5-{[3-chloro-4-({[5-{1-[4-chloro-3-(methyloxy)phenyl]-1-methylethyl}-1-(4-fluorophenyl)-1H-imidazol-2-yl]thio}methyl)-5-fluorophenyl]carbonyl}-L-ornithine] | < 100 | < 100
CC(C)(c1ccc(Cl)c(Cl)c1)c1cnc(CCc2c(F)cc(C(=O)N[C@@H](CCCNC(=N)N)C(=O)O)cc2Cl)n1-c1ccc(F)cc1 [N-2-{[3-chloro-4-(2-{5-[1-(3,4-dichlorophenyl)-1-methylethyl]-1-(4-fluorophenyl)-1H-imidazol-2-yl}ethyl)-5-fluorophenyl]carbonyl}-L-arginine] | 100 to 1000 | 100 to 1000
COc1cc(C(C)(C)c2cnc(SCc3c(F)cc(C(=O)N[C@@H](CCCNC(=N)N)C(=O)O)cc3Cl)n2-c2ccc(F)cc2)ccc1Cl [N-2-{[3-chloro-4-({[5-{1-[4-chloro-3-(methyloxy)phenyl]-1-methylethyl}-1-(4-fluorophenyl)-1H-imidazol-2-yl]thio}methyl)-5-fluorophenyl]carbonyl}-L-arginine] | < 100 | < 100
COc1cc(C(C)(C)c2cnc(SCc3c(F)cc(C(=O)NC(CCCNC(=N)N)C(=O)O)cc3Cl)n2-c2ccc(F)cc2)ccc1F [N-2-{[3-chloro-5-fluoro-4-({[5-{1-[4-fluoro-3-(methyloxy)phenyl]-1-methylethyl}-1-(4-fluorophenyl)-1H-imidazol-2-yl]thio}methyl)phenyl]carbonyl}-D-arginine] | < 100 | < 100
CC(C)(c1ccc(Cl)c(Cl)c1)c1cnc(SCc2ccc(C(=O)NCC(=O)O)cc2F)n1-c1ccc(F)cc1 [N-({4-[({5-[1-(3,4-dichlorophenyl)-1-methylethyl]-1-(4-fluorophenyl)-1H-imidazol-2-yl}thio)methyl]-3-fluorophenyl}carbonyl)glycine] | 100 to 1000 | 100 to 1000
COc1cc(-n2c(C(C)(C)c3ccc(Cl)c(Cl)c3)cnc2SCc2c(F)cc(C(=O)NCCC(=O)O)cc2F)ccc1F [N-({4-[({5-[1-(3,4-dichlorophenyl)-1-methylethyl]-1-[4-fluoro-3-(methyloxy)phenyl]-1H-imidazol-2-yl}thio)methyl]-3,5-difluorophenyl}carbonyl)-beta-alanine] | < 100 | < 100
CC(C)(c1ccc(Cl)c(Cl)c1)c1cnc(CNC2CCN(S(C)(=O)=O)CC2)n1-c1ccc(F)cc1 [N-({5-[1-(3,4-dichlorophenyl)-1-methylethyl]-1-(4-fluorophenyl)-1H-imidazol-2-yl}methyl)-1-(methylsulfonyl)piperidin-4-amine] | 1000 to 10000 | 1000 to 10000
CC(C)(c1ccc(Cl)c(Cl)c1)c1cnc(S(=O)(=O)NCc2ccc(F)cc2Cl)n1-c1ccc(F)cc1 [N-[(2-chloro-4-fluorophenyl)methyl]-5-[1-(3,4-dichlorophenyl)-1-methylethyl]-1-(4-fluorophenyl)-1H-imidazole-2-sulfonamide] | < 100 | 100 to 1000
CC(C)(c1ccc(Cl)c(Cl)c1)c1cnc(S(=O)(=O)NCc2c(F)cccc2Cl)n1-c1ccc(F)cc1 [N-[(2-chloro-6-fluorophenyl)methyl]-5-[1-(3,4-dichlorophenyl)-1-methylethyl]-1-(4-fluorophenyl)-1H-imidazole-2-sulfonamide] | 100 to 1000 | 100 to 1000
COc1cc(C(C)(C)c2cnc(NCc3ccc(Cl)cc3F)n2-c2ccc(F)cc2)ccc1Cl [N-[(4-chloro-2-fluorophenyl)methyl]-5-{1-[4-chloro-3-(methyloxy)phenyl]-1-methylethyl}-1-(4-fluorophenyl)-1H-imidazol-2-amine] | 1000 to 10000 | 1000 to 10000
COc1cc(-n2c(C(C)(C)c3ccc(S(N)(=O)=O)c(Cl)c3)cnc2SCc2c(F)cc(C(=O)NCCC(=O)O)cc2F)ccc1F [N-[(4-{[(5-{1-[4-(aminosulfonyl)-3-chlorophenyl]-1-methylethyl}-1-[4-fluoro-3-(methyloxy)phenyl]-1H-imidazol-2-yl)thio]methyl}-3,5-difluorophenyl)carbonyl]-beta-alanine] | < 100 | < 100

The remaining lines, values ahead:

EC50 (human TGR5 (h-TGR5)) [nM] | EC50 (h-TGR5) [nM] | Structure (SMILES)
< 100 | < 100 | COc1cc(-n2c(C(C)(C)c3ccc4onc(N)c4c3)cnc2SCc2c(F)cc(C(=O)NC(CCCNC(=N)N)C(=O)O)cc2Cl)ccc1F [N-2-({4-[({5-[1-(3-amino-1,2-benzisoxazol-5-yl)-1-methylethyl]-1-[4-fluoro-3-(methyloxy)phenyl]-1H-imidazol-2-yl}thio)methyl]-3-chloro-5-fluorophenyl}carbonyl]-D-arginine]
< 100 | < 100 | COc1cc(C(C)(C)c2cnc(SCc3c(F)cc(C(=O)N[C@H](CCCNC(=N)N)C(=O)O)cc3Cl)n2-c2ccc(F)cc2)ccc1Cl [N-2-{[3-chloro-4-({[5-{1-[4-chloro-3-(methyloxy)phenyl]-1-methylethyl}-1-(4-fluorophenyl)-1H-imidazol-2-yl]thio}methyl)-5-fluorophenyl]carbonyl}-D-arginine]
< 100 | < 100 | COc1cc(C(C)(C)c2cnc(SCc3c(F)cc(C(=O)N[C@@H](CCCN)C(=O)O)cc3Cl)n2-c2ccc(F)cc2)ccc1Cl [N-2-{[3-chloro-4-({[5-{1-[4-chloro-3-(methyloxy)phenyl]-1-methylethyl}-1-(4-fluorophenyl)-1H-imidazol-2-yl]thio}methyl)-5-fluorophenyl]carbonyl}-L-ornithine]
< 100 | < 100 | COc1cc(C(C)(C)c2cnc(SCc3c(F)cc(C(=O)NCCCC(N)C(=O)O)cc3Cl)n2-c2ccc(F)cc2)ccc1Cl [N-5-{[3-chloro-4-({[5-{1-[4-chloro-3-(methyloxy)phenyl]-1-methylethyl}-1-(4-fluorophenyl)-1H-imidazol-2-yl]thio}methyl)-5-fluorophenyl]carbonyl}-L-ornithine]
< 100 | < 100 | COc1cc(C(C)(C)c2cnc(SCc3c(F)cc(C(=O)NC(CCCCNC(=N)N)C(=O)O)cc3Cl)n2-c2ccc(F)cc2)ccc1Cl [N-6-[amino(imino)methyl]-N-2-{[3-chloro-4-({[5-{1-[4-chloro-3-(methyloxy)phenyl]-1-methylethyl}-1-(4-fluorophenyl)-1H-imidazol-2-yl]thio}methyl)-5-fluorophenyl]carbonyl}-L-lysine]
< 100 | < 100 | COc1cc(C(C)(C)c2cnc(SCc3c(F)cc(OCCNC(=N)NC(=N)N)cc3F)n2-c2ccc(F)cc2)ccc1Cl [N-(2-{[4-({[5-{1-[4-chloro-3-(methyloxy)phenyl]-1-methylethyl}-1-(4-fluorophenyl)-1H-imidazol-2-yl]thio}methyl)-3,5-difluorophenyl]oxy}ethyl)imido dicarbonimidic diamide]
< 100 | < 100 | COc1cc(C(C)(C)c2cnc(SCc3c(F)cc(S(=O)(=O)NCCCNC(=N)N)cc3F)n2-c2ccc(F)cc2)ccc1Cl [N-(3-{[amino(imino)methyl]amino}propyl)-4-({[5-{1-[4-chloro-3-(methyloxy)phenyl]-1-methylethyl}-1-(4-fluorophenyl)-1H-imidazol-2-yl]thio}methyl)-3,5-difluorobenzenesulfonamide]
100 to 1000 | 100 to 1000 | CC(=O)NS(=O)(=O)c1ccc(CSc2ncc(C(C)(C)c3ccc(Cl)c(Cl)c3)n2-c2ccc(F)cc2)c(Cl)c1 [N-({3-chloro-4-[({5-[1-(3,4-dichlorophenyl)-1-methylethyl]-1-(4-fluorophenyl)-1H-imidazol-2-yl}thio)methyl]phenyl}sulfonyl)acetamide]
100 to 1000 | 100 to 1000 | CC(C)(c1ccc(Cl)c(Cl)c1)c1cnc(SCc2ccc(F)c(C(=O)NCC(=O)O)c2)n1-c1ccc(F)cc1 [N-({5-[({5-[1-(3,4-dichlorophenyl)-1-methylethyl]-1-(4-fluorophenyl)-1H-imidazol-2-yl}thio)methyl]-2-fluorophenyl}carbonyl)glycine]
< 100 | < 100 | COc1cc(-n2c(C(C)(C)c3ccc(S(N)(=O)=O)c(Cl)c3)cnc2SCc2ccc(C(=O)NCCC(=O)O)cc2F)ccc1F [N-[(4-{[(5-{1-[4-(aminosulfonyl)-3-chlorophenyl]-1-methylethyl}-1-[4-fluoro-3-(methyloxy)phenyl]-1H-imidazol-2-yl)thio]methyl}-3-fluorophenyl)carbonyl]-beta-alanine]
